Data from patent publication US20140220680A1, “XENO-FREE AND A FEEDER FREE SELF-RENEWAL EXTRACELLULAR MATRIX FOR LONG-TERM MAINTENANCE OF UNDIFFERENTIATED HUMAN PLURIPOTENT STEM CELLS AND METHOD OF SYNTHESIZING THE SAME” (ROYAN RESEARCH, priority 2013, published 2014).

What was measured:
[1] = tested on: Royan H5 hESCs; assay: Plating efficiency (PE) of hESC clumps on coated plates, day 7; format: cell-based, human
Procedure: The Matrigel (MG) was used as a positive control in all experiments. In the first phase, with respect to table 1, the Royan H5 cell line was cultured in CM coated plates (six-well, TPP, 92006). The CM was prepared by either 24 h or 72 h incubation of neurobasal medium (Invitrogen, 21103049) supplemented with L-Gln, β-ME, NEAAs and ITS on human dermal fibroblast (HDFs) feeder layers. The HDFs were inactivated by mitomycin C for 2 h. The mitomycin C was used with a concentration of 10 μg/ml (Sigma-Aldrich, M0503). The feeder cells were cultured at high densities and at low densities in 25 cm^2 T flasks (TPP, 90025) in 4 ml of conditioned medium (160 μl/cm^2). The high density comprised of 50000 cells/cm^2 and the low density comprised of 5000 cells/cm^2. The plates were exposed to CM for either 5 min or 150 min while coating. […]
The plating efficiency (PE) and grading morphology were conducted in nine replications. […] Results were expressed as mean±standard deviation (SD). […] The PE (based on the ratio of undifferentiated […] colonies formed per initially seeded hESCs and hiPSCs clumps) was calculated under phase contrast inverted microscope (CKX 41, Olympus). The cloning efficiency (based on the ratio of ALP-positive colonies formed per initially seeded hESCs and hiPSCs single cells) was calculated by ImageJ software version 1.4. […]

[2] = biological target: Rho-associated Coiled Kinase (ROCK); conditions: stated with the concentration used; no test described; cited from earlier work

## Y-27632 dihydrochloride monohydrate
[1]; ROCK inhibitor in MG compared to ROCK inhibitor in culture medium only
  plating efficiency increase: 1.5 to 2 fold
[1]; ROCKi added to ECM (MG) vs added to medium
  plating and cloning efficiency: increased plating and cloning efficiency
[2]
  EC50: 800 nM
